Results from US8729078B2, “Inhibitors of bruton's tyrosine kinase” (Hoffmann-La Roche Inc., priority 2011, dated 2014).

Assays:
[1] = test system: B cells in human whole blood (CD69 expression); experiment: Inhibition of B cell activation in whole blood measured by CD69 expression; assay type: cell-based; conditions: anti-IgM stimulation, CD69-positive CD20-positive cells
Experimental: Inhibition of B Cell Activation in Whole Blood Measured by CD69 Expression
A procedure to test the ability of Btk inhibitors to suppress B cell receptor-mediated activation of B cells in human blood is as follows:
Human whole blood (HWB) is obtained from healthy volunteers, with the following restrictions: 24 hr drug-free, non-smokers. Blood is collected by venipuncture into Vacutainer tubes anticoagulated with sodium heparin. Test compounds are diluted to ten times the desired starting drug concentration in PBS (20×), followed by three-fold serial dilutions in 10% DMSO in PBS to produce a nine point dose-response curve. 5.5 μl of each compound dilution is added in duplicate to a 2 ml 96-well V bottom plate (Analytical Sales and Services, #59623-23); 5.5 μl of 10% DMSO in PBS is added to control and no-stimulus wells. HWB (100 μl) is added to each well, and after mixing the plates are incubated at 37 C, 5% CO2, 100% humidity for 30 minutes. Goat F(ab′)2 anti-human IgM (Southern Biotech, #2022-14) (10 μl of a 500 μg/ml solution, 50 μg/ml final concentration) is added to each well (except the no-stimulus wells) with mixing and the plates are incubated for an additional 20 hours.
At the end of the 20 hour incubation, samples are incubated with florescent-probe-labeled anti-bodies (15 μl PE Mouse anti-Human CD20, BD Pharmingen, #555623, and/or 20 ul APC Mouse anti-Human CD69, BD Pharmingen #555533) for 30 minutes, at 37 C, 5% CO2, 100% humidity. Included are induced control, unstained and single stains for compensation adjustments and initial voltage settings. Samples are then lysed with 1 ml of 1× Pharmingen Lyse Buffer (BD Pharmingen #555899), and plates are centrifuged at 1800 rpm for 5 minutes. Supernatants are removed via suction and the remaining pellets are lysed again with another 1 ml of 1× Pharmingen Lyse Buffer, and plates are spun down as before. Supernatants are aspirated and remaining pellets are washed in FACs buffer (PBS+1% FBS). After a final spin, the supernantants are removed and pellets are resuspended in 180 μl of FACs buffer. Samples are transferred to a 96 well plate suitable to be run on the HTS 96 well system on the BD LSR II flow cytometer.
Using appropriate excitation and emission wavelengths for the fluorophores used, data are acquired and percent positive cell values are obtained using Cell Quest Software. Results are initially analyzed by FACS analysis software (Flow Jo). […] The IC50 values are calculated using XLfit software version 3, equation 201.

Btk = Btk (Homo sapiens (Human), UniProt Q06187); experiment: Bruton's Tyrosine Kinase (Btk) inhibition assay (FRET BTK); assay type: biochemical
Chain of Btk (Q06187 whole entry): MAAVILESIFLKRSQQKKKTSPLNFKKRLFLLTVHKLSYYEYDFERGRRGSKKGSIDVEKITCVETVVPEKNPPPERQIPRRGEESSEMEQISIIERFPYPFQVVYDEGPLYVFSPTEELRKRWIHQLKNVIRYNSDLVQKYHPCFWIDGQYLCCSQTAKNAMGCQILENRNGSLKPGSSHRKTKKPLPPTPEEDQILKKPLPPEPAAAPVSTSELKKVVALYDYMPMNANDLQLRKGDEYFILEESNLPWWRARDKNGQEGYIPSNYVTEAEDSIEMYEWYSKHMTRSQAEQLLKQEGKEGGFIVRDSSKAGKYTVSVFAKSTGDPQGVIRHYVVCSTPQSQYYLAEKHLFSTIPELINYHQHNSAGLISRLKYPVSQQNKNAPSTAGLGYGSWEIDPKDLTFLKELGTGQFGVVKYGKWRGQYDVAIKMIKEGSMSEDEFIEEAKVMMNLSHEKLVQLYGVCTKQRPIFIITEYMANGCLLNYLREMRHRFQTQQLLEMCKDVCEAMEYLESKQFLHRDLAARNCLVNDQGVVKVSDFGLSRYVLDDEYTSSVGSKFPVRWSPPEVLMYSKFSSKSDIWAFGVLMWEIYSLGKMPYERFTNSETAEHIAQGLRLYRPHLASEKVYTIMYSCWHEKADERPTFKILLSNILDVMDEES

| IC50 [1] [nM] | IC50 (Btk) [nM] | SMILES |
| --- | --- | --- |
| 10 |  | CC(C)(C)c1cc(F)c2c(=O)n(-c3cccc(-n4cc(C(N)=O)c(Nc5ccc(C(=O)N6CCOCC6)cc5)n4)c3CO)ncc2c1 [Compound I-20, 1-[3-(6-tert-Butyl-8-fluoro-1-oxo-1H-phthalazin-2-yl)-2-hydroxymethyl-phenyl]-3-[4-(morpholine-4-carbonyl)-phenylamino]-1H-pyrazole-4-carboxylic acid amide] |
| 260 |  | CC(C)(C)c1cc(F)c2c(=O)n(-c3cccc(-n4cc(C(N)=O)c(Nc5ccc(C(=O)N6CCOCC6)cc5)n4)c3)ncc2c1 [Compound I-21, 1-[3-(6-tert-Butyl-8-fluoro-1-oxo-1H-phthalazin-2-yl)-phenyl]-3-[4-(morpholine-4-carbonyl)-phenylamino]-1H-pyrazole-4-carboxylic acid amide] |
|  | 3560 | CN(C)CCNc1ccc2c(C(N)=O)cn(-c3cccc(-n4ncc5cc(C(C)(C)C)cc(F)c5c4=O)c3CO)c2n1 [Compound I-51, 1-[3-(6-tert-Butyl-8-fluoro-1-oxo-1H-phthalazin-2-yl)-2-hydroxymethyl-phenyl]-6-(2-dimethylamino-ethylamino)-1H-pyrrolo[2,3-b]pyridine-3-carboxylic acid amide] |
| 1070 |  | CN(C)Cc1ccc2c(C(N)=O)cn(-c3cccc(-n4ncc5cc(C(C)(C)C)cc(F)c5c4=O)c3CO)c2n1 [Compound I-52, 1-[3-(6-tert-Butyl-8-fluoro-1-oxo-1H-phthalazin-2-yl)-2-hydroxymethyl-phenyl]-6-dimethylaminomethyl-1H-pyrrolo[2,3-b]pyridine-3-carboxylic acid amide] |
|  | 0.12 | CC(=O)c1ccc(Nc2nn(-c3cccc(-n4ncc5cc(C(C)(C)C)ccc5c4=O)c3CO)cc2C(N)=O)cc1 [Compound I-53, 3-(4-Acetyl-phenylamino)-1-[3-(6-tert-butyl-1-oxo-1H-phthalazin-2-yl)-2-hydroxymethyl-phenyl]-1H-pyrazole-4-carboxylic acid amide] |
|  | 0.95 | CC(C)(C)c1ccc2c(=O)n(-c3cccc(-n4cc(C(N)=O)c(Nc5ccccn5)n4)c3CO)ncc2c1 [Compound I-54, 1-[3-(6-tert-Butyl-1-oxo-1H-phthalazin-2-yl)-2-hydroxymethyl-phenyl]-3-(pyridin-2-ylamino)-1H-pyrazole-4-carboxylic acid amide] |
|  | 0.39 | CN(C)Cc1ccc(Nc2nn(-c3cccc(-n4ncc5cc(C(C)(C)C)ccc5c4=O)c3CO)cc2C(N)=O)nc1 [Compound I-55, 1-[3-(6-tert-Butyl-1-oxo-1H-phthalazin-2-yl)-2-hydroxymethyl-phenyl]-3-(5-dimethylaminomethyl-pyridin-2-ylamino)-1H-pyrazole-4-carboxylic acid amide] |
|  | 3700 | CC(C)(C)c1cc(F)c2c(=O)n(-c3cccc(-n4cc(C(N)=O)cn4)c3)ncc2c1 [Compound I-56, 1-[3-(6-tert-Butyl-8-fluoro-1-oxo-1H-phthalazin-2-yl)-phenyl]-1H-pyrazole-4-carboxylic acid amide] |

The next lines start with the compound.

| SMILES | IC50 [1] [nM] | IC50 (Btk) [nM] |
| --- | --- | --- |
| CC(C)(C)c1ccc2c(=O)n(-c3cccc(-c4c[nH]c(C(N)=O)c4)c3CO)ncc2c1 [Compound I-3, 4-[3-(6-tert-Butyl-1-oxo-1H-phthalazin-2-yl)-2-hydroxymethyl-phenyl]-1H-pyrrole-2-carboxylic acid amide] | > 5000 | 27 |
| Cn1cc(-c2cccc(-n3ncc4cc(C(C)(C)C)ccc4c3=O)c2CO)cc1C(N)=O [Compound I-4, 4-[3-(6-tert-Butyl-1-oxo-1H-phthalazin-2-yl)-2-hydroxymethyl-phenyl]-1-methyl-1H-pyrrole-2-carboxylic acid amide] | 3600 | 11.6 |
| Cn1c(C(N)=O)ccc1-c1cccc(-n2ncc3cc(C(C)(C)C)ccc3c2=O)c1CO [Compound I-5, 5-[3-(6-tert-Butyl-1-oxo-1H-phthalazin-2-yl)-2-hydroxymethyl-phenyl]-1-methyl-1H-pyrrole-2-carboxylic acid amide] | 4370 |  |
| Cc1nc(-c2cccc(-n3ncc4cc(C(C)(C)C)ccc4c3=O)c2CO)oc1C(N)=O [Compound I-6, 2-[3-(6-tert-Butyl-1-oxo-1H-phthalazin-2-yl)-2-hydroxymethyl-phenyl]-4-methyl-oxazole-5-carboxylic acid amide] | > 5000 | 1260 |
| CC(C)(C)c1cc(F)c2c(=O)n(-c3cccc(-c4nc(C(N)=O)cs4)c3CO)ncc2c1 [Compound I-7, 2-[3-(6-tert-Butyl-8-fluoro-1-oxo-1H-phthalazin-2-yl)-2-hydroxymethyl-phenyl]-thiazole-4-carboxylic acid amide] | > 5000 | 130 |
| Cn1cc(-c2cccc(-n3ncc4cc(C(C)(C)C)cc(F)c4c3=O)c2CO)nc1C(N)=O [Compound I-8, 4-[3-(6-tert-Butyl-8-fluoro-1-oxo-1H-phthalazin-2-yl)-2-hydroxymethyl-phenyl]-1-methyl-1H-imidazole-2-carboxylic acid amide] | 1910 | 18.2 |
| Cn1cc(-c2cccc(-n3ncc4cc(C(C)(C)C)cc(F)c4c3=O)c2CO)cc1C(N)=O [Compound I-9, 4-[3-(6-tert-Butyl-8-fluoro-1-oxo-1H-phthalazin-2-yl)-2-hydroxymethyl-phenyl]-1-methyl-1H-pyrrole-2-carboxylic acid amide] | 1260 | 2.51 |
| CC(C)(C)c1cc(F)c2c(=O)n(-c3cccc(-c4ccc(C(N)=O)o4)c3CO)ncc2c1 [Compound I-10, 5-[3-(6-tert-Butyl-8-fluoro-1-oxo-1H-phthalazin-2-yl)-2-hydroxymethyl-phenyl]-furan-2-carboxylic acid amide] | > 5000 | 832 |
| CC(C)(C)c1cc(F)c2c(=O)n(-c3cccc(-c4coc(C(N)=O)c4)c3CO)ncc2c1 [Compound I-11, 4-[3-(6-tert-Butyl-8-fluoro-1-oxo-1H-phthalazin-2-yl)-2-hydroxymethyl-phenyl]-furan-2-carboxylic acid amide] | > 500 | 51.4 |
| Cn1cc(-c2cccc(-n3ncc4cc(C(C)(C)C)cc(CO)c4c3=O)c2CO)cc1C(N)=O [Compound I-12, 4-[3-(6-tert-Butyl-8-hydroxymethyl-1-oxo-1H-phthalazin-2-yl)-2-hydroxymethyl-phenyl]-1-methyl-1H-pyrrole-2-carboxylic acid amide] | > 500 | 696 |
| CN1Cc2cc(C(C)(C)C)ccc2C(=O)N1c1cccc(-c2cc(C(N)=O)n(C)c2)c1CO [Compound I-14, 4-[3-(6-tert-Butyl-3-methyl-1-oxo-3,4-dihydro-1H-phthalazin-2-yl)-2-hydroxymethyl-phenyl]-1-methyl-1H-pyrrole-2-carboxylic acid amide] | 4740 | 26.7 |
| CC(C)(C)c1cc(F)c2c(=O)n(-c3cccc(-n4cc(C(N)=O)c5ccccc54)c3CO)ncc2c1 [Compound I-17, 1-[3-(6-tert-Butyl-8-fluoro-1-oxo-1H-phthalazin-2-yl)-2-hydroxymethyl-phenyl]-1H-indole-3-carboxylic acid amide] | 2660 |  |
| CC(C)(C)c1ccc2c(=O)n(-c3cccc(-n4cc(C(N)=O)c5ccccc54)c3CO)ncc2c1 [Compound I-18, 1-[3-(6-tert-Butyl-1-oxo-1H-phthalazin-2-yl)-2-hydroxymethyl-phenyl]-1H-indole-3-carboxylic acid amide] | 10700 |  |
| CC(C)(C)c1ccc2c(=O)n(-c3cccc(-n4cc(C(N)=O)c(Nc5ccc(C(=O)N6CCOCC6)cc5)n4)c3CO)ncc2c1 [Compound I-19, 1-[3-(6-tert-Butyl-1-oxo-1H-phthalazin-2-yl)-2-hydroxymethyl-phenyl]-3-[4-(morpholine-4-carbonyl)-phenylamino]-1H-pyrazole-4-carboxylic acid amide] | 48 |  |
